US20260217670A1, “CRYSTAL FORM OF BAXDROSTAT, AND PREPARATION METHOD THEREFOR AND USE THEREOF” (CRYSTAL PHARMACEUTICAL (SUZHOU) CO., LTD., priority 2023, published 2026)

Legend:
Type in all cases: physicochemical
[1] = Wet ball milling (grinding stability); conditions: for Solid form after grinding: wet ball milling, 1800 rpm for 10 min
Protocol: (§1) XRPD patterns in the present disclosure were acquired by a Bruker D8 DISCOVER X-ray powder diffractometer. The parameters of the X-ray powder diffraction method of the present disclosure are as follows: • X-Ray source: Cu, Kα • Kα1 (Å): 1.54060; Kα2 (Å): 1.54439 • Kα2/Kα1 intensity ratio: 0.50 • Voltage: 40 kV • Current: 40 mA • Scan range (20): from 4.0 degree to 40.0 degree
A certain amount of Form CSI solid was placed in a centrifuge tube, and about 10 μL of corresponding solvent was added inside, along with a 5 mm grinding ball. The centrifuge tube containing the sample was installed on the GT300 vibration ball mill and subjected to wet ball milling at 1800 rpm for 10 min.

[2] = Storage stability of Form CSI, purity by HPLC and crystalline form by XRPD
Protocol: as §1
A certain amount of Form CSI prepared by the present disclosure was stored under conditions of 25° C./60% RH, 40° C./75% RH and 60° C./75% RH. The purity and crystalline form were checked by HPLC and XRPD. The results are listed in Table 3, and the XRPD overlay is substantially as depicted in FIG. 7 and FIG. 8. […] Under 60° C./75% RH, it remains stable for at least 1 month with its purity also essentially unchanged, indicating very good stability even under stress conditions.

[3] = DVS weight gain at various humidity (hygroscopicity / humidity stability)
Protocol: Purge gas: N2DVS data in the present disclosure were measured via an SMS (Surface Measurement Systems Ltd.) intrinsic DVS instrument. The instrument control software is DVS-Intrinsic control software. Typical parameters for DVS test are as follows: • Temperature: 25° C. • Gas and flow rate: N2, 200 mL/min • RH range: 0% RH to 95% RH
A certain amount of Form CSI was used to test the weight gain at various humidity by a DVS instrument. The weight gains at each relative humidity were recorded in a cycle of 60% RH-95% RH-0% RH-95% RH-0% RH. […] The XRPD overlay before and after DVS test is substantially as depicted in FIG. 11.

[4] = wet ball milling at 1800 rpm for 10 min, water or ethanol
[5] = 25° C./60% RH, Open package, 6 months
[6] = 25° C./60% RH, Sealed package, 6 months
[7] = 40° C./75% RH, Open package, 6 months
[8] = 40° C./75% RH, Sealed package, 6 months
[9] = 60° C./75% RH, Open package, 1 month
[10] = 60° C./75% RH, Sealed package, 1 month

## CCC(=O)N[C@@H]1CCCc2c(-c3ccc4c(c3)CCC(=O)N4C)cncc21 [Form CSI, (+)-(R)—N-(4-(1-methyl-2-oxo-1,2,3,4-tetrahydroquinolin-6-yl)-5,6,7,8-tetrahydroisoquinolin-8-yl) propionamide]
[1]; [4]
  Crystalline form before and after wet ball milling: remains unchanged
  Crystallinity after wet ball milling: no significant decrease
[1]; Ethanol
  Solid form after grinding: Form CSI
[1]; Water
  Solid form after grinding: Form CSI
[2]; 25° C./60% RH
  Time Form CSI remains stable with purity essentially unchanged: at least 6 months
[2]; [5]
  Purity: 99.27%
  Solid form: Form CSI
[2]; [6]
  Purity: 99.22%
  Solid form: Form CSI
[2]; 40° C./75% RH
  Time Form CSI remains stable with purity essentially unchanged: at least 6 months
[2]; [7]
  Purity: 99.26%
  Solid form: Form CSI
[2]; [8]
  Purity: 99.21%
  Solid form: Form CSI
[2]; 60° C./75% RH
  Time Form CSI remains stable with purity essentially unchanged: at least 1 month
[2]; [9]
  Purity: 99.26%
  Solid form: Form CSI
[2]; [10]
  Purity: 99.24%
  Solid form: Form CSI
[2]; Initial
  Purity: 99.23%
  Solid form: Form CSI
[3]; cycle of 60% RH-95% RH-0% RH-95% RH-0% RH
  Form change before and after DVS test (XRPD): No form change
[3]; from 60% RH to 80% RH, DVS, 25° C.
  Weight gain: 0.34%
